The values that follow come from patent US8309577B2, “Quinuclidine compounds as α-7 nicotinic acetylcholine receptor ligands” (Bristol-Myers Squibb Company, priority 2008, dated 2012).

Some results are limits rather than exact numbers.

T1 sequence (Q05941 23-502): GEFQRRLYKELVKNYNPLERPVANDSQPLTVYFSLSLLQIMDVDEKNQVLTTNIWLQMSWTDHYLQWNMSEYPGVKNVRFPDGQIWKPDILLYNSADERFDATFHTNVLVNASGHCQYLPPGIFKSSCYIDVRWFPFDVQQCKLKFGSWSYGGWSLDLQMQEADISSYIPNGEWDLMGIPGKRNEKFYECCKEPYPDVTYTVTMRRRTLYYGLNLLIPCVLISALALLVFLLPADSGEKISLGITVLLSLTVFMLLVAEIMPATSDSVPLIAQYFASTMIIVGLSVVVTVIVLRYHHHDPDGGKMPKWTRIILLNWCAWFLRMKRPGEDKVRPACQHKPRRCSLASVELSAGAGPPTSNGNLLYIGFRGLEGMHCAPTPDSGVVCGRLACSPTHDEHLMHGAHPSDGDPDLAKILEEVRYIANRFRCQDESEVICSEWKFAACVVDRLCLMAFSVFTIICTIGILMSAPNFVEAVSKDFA

One assay has as its target T1, α-7 nicotinic acetylcholine receptor channel expressed in HEK 293 cells (Rattus norvegicus, UniProt Q05941).
T1 construct: expressed in transfected cells
Nature of the assay: Ca2+-sensitive fluorescence-based FLIPR assay, α7 nicotinic ACh receptor channel function (agonist).
Conditions: not given
In kind it is cell-based. Put shortly:
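Potency and efficacy derived from kinetic FLIPR Ca²⁺-flux fluorescence, recorded 3 min after compound addition in Hanks buffer following a 10 s baseline.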
Consider `COc1cc2cnc(NC3=NC[C@@]4(CN5CCC4CC5)O3)cc2cc1OC` [Example 342, (R)—N-(6,7-dimethoxyisoquinolin-3-yl)-4H-1′-azaspiro[oxazole-5,3′-bicyclo[2.2.2]octan]-2-amine], for which the EC50 – broadly, the midpoint of the concentration-response curve – amounted to 1600 nM.

Still in this assay, the particulars now being: FLIPR α7 (EC50, nM), Table Ib; HEK 293 cells, agonist Ca2+ flux.
`COc1cnc(NC2=NC[C@@]3(CN4CCC3CC4)O2)nc1Cl` [Example 317, (R)—N-(4-Chloro-5-methoxypyrimidin-2-yl)-4H-1′-azaspiro[oxazole-5,3′-bicyclo[2.2.2]octan]-2-amine] had an EC50 of 660 nM.

On to `Cc1nc(NC2=NC[C@@]3(CN4CCC3CC4)O2)cc2cc(F)ccc12` [Example 325, (R)—N-(6-Fluoro-1-methylisoquinolin-3-yl)-4H-1′-azaspiro[oxazole-5,3′-bicyclo[2.2.2]octan]-2-amine], for which a half-maximal response (EC50) required 139 nM. `Cc1cc2cnc(NC3=NC[C@@]4(CN5CCC4CC5)O3)cc2cc1C` [Example 335, (2R)—N-(6,7-Dimethyl-3-isoquinolinyl)-4′H-spiro[4-azabicyclo[2.2.2]octane-2,5′-[1,3]oxazol]-2′-amine] registered a concentration giving a half-maximal response (EC50) of 104 nM. For the molecule `Fc1ccc(Br)c2cnc(NC3=NC[C@@]4(CN5CCC4CC5)O3)cc12` [Example 346, (R)—N-(8-Bromo-5-fluoroisoquinolin-3-yl)-4H-1′-azaspiro[oxazole-5,3′-bicyclo[2.2.2]octan]-2-amine], the EC50 came to 310 nM.

Staying with this assay, now noted: FLIPR α7 activity rating (EC50, nM), Table Ib; HEK 293 cells, agonist Ca2+ flux.
In turn, `COc1cnc(NC2=NC[C@@]3(CN4CCC3CC4)O2)nc1Cl` [Example 317, (R)—N-(4-Chloro-5-methoxypyrimidin-2-yl)-4H-1′-azaspiro[oxazole-5,3′-bicyclo[2.2.2]octan]-2-amine] returned an EC50 of 100 to 1000 nM.

As for `Fc1cc(F)c2cnc(NC3=NC[C@@]4(CN5CCC4CC5)O3)cc2c1` [Example 318, (R)—N-(6,8-Difluoroisoquinolin-3-yl)-4H-1′-azaspiro[oxazole-5,3′-bicyclo[2.2.2]octan]-2-amine], the EC50 is less than 100 nM. `Fc1cc2cnc(NC3=NC[C@@]4(CN5CCC4CC5)O3)cc2cc1F` [Example 319, (R)—N-(6,7-Difluoroisoquinolin-3-yl)-4H-1′-azaspiro[oxazole-5,3′-bicyclo[2.2.2]octan]-2-amine] returned a concentration for a half-maximal effect (EC50) of less than 100 nM.

For `Fc1ccc(F)c2cc(NC3=NC[C@@]4(CN5CCC4CC5)O3)ncc12` [Example 320, (R)—N-(5,8-Difluoroisoquinolin-3-yl)-4H-1′-azaspiro[oxazole-5,3′-bicyclo[2.2.2]octan]-2-amine], the 50% effective concentration (EC50) was less than 100 nM. Molecule `Fc1ccc2cnc(NC3=NC[C@@]4(CN5CCC4CC5)O3)nc2c1` [Example 321, (R)—N-(7-Fluoroquinazolin-2-yl)-4H-1′-azaspiro[oxazole-5,3′-bicyclo[2.2.2]octan]-2-amine] had an EC50 of less than 100 nM. Regarding `Clc1cccc2nc(NC3=NC[C@@]4(CN5CCC4CC5)O3)ncc12` [Example 322, (R)—N-(5-Chloroquinazolin-2-yl)-4H-1′-azaspiro[oxazole-5,3′-bicyclo[2.2.2]octan]-2-amine], the EC50 was less than 100 nM. `Fc1cccc2nc(NC3=NC[C@@]4(CN5CCC4CC5)O3)ncc12` [Example 323, (R)—N-(5-Fluoroquinazolin-2-yl)-4H-1′-azaspiro[oxazole-5,3′-bicyclo[2.2.2]octan]-2-amine] registered an EC50 of less than 100 nM. Same read-out and setting: to `Cc1nc(NC2=NC[C@@]3(CN4CCC3CC4)O2)nc2cc(F)ccc12` [Example 324, (R)—N-(7-Fluoro-4-methylquinazolin-2-yl)-4H-1′-azaspiro[oxazole-5,3′-bicyclo[2.2.2]octan]-2-amine] belongs less than 100 nM; to `Cc1nc(NC2=NC[C@@]3(CN4CCC3CC4)O2)cc2cc(F)ccc12` [Example 325, (R)—N-(6-Fluoro-1-methylisoquinolin-3-yl)-4H-1′-azaspiro[oxazole-5,3′-bicyclo[2.2.2]octan]-2-amine], 100 to 1000 nM; to `Cc1nc(NC2=NC[C@@]3(CN4CCC3CC4)O2)cc2cc(Cl)ccc12` [Example 326, (R)—N-(6-Chloro-1-methylisoquinolin-3-yl)-4H-1′-azaspiro[oxazole-5,3′-bicyclo[2.2.2]octan]-2-amine], 100 to 1000 nM. The molecule `Cc1nc(NC2=NC[C@@]3(CN4CCC3CC4)O2)cc2ccc(F)cc12` [Example 327, (R)—N-(7-Fluoro-1-methylisoquinolin-3-yl)-4H-1′-azaspiro[oxazole-5,3′-bicyclo[2.2.2]octan]-2-amine] yielded an EC50 of 100 to 1000 nM. Same read-out and setting: next, `Cc1nc(NC2=NC[C@@]3(CN4CCC3CC4)O2)cc2c(F)cc(F)cc12` [Example 328, (R)—N-(5,7-Difluoro-1-methylisoquinolin-3-yl)-4H-1′-azaspiro[oxazole-5,3′-bicyclo[2.2.2]octan]-2-amine]: 100 to 1000 nM; `CSc1ccc(-c2cc(NC3=NC[C@@]4(CN5CCC4CC5)O3)ncn2)cn1` [Example 329, (R)—N-(6-(6-(Methylthio)pyridin-3-yl)pyrimidin-4-yl)-4H-1′-azaspiro[oxazole-5,3′-bicyclo[2.2.2]octan]-2-amine]: less than 100 nM; `Fc1ncccc1-c1cc(NC2=NC[C@@]3(CN4CCC3CC4)O2)ncn1` [Example 330, (R)—N-(6-(2-Fluoropyridin-3-yl)pyrimidin-4-yl)-4H-1′-azaspiro[oxazole-5,3′-bicyclo[2.2.2]octan]-2-amine]: less than 100 nM. `Fc1ccc(-c2cc(NC3=NC[C@@]4(CN5CCC4CC5)O3)ncn2)cn1` [Example 331, (R)—N-(6-(6-Fluoropyridin-3-yl)pyrimidin-4-yl)-4H-1′-azaspiro[oxazole-5,3′-bicyclo[2.2.2]octan]-2-amine] showed an EC50 of less than 100 nM. `Fc1cncc(-c2cc(NC3=NC[C@@]4(CN5CCC4CC5)O3)ncn2)c1` [Example 332, (R)—N-(6-(5-Fluoropyridin-3-yl)pyrimidin-4-yl)-4H-1′-azaspiro[oxazole-5,3′-bicyclo[2.2.2]octan]-2-amine] had a half-maximal effective concentration (EC50) of less than 100 nM. Still for that read-out and setting: to `Cn1nccc1-c1cc(NC2=NC[C@@]3(CN4CCC3CC4)O2)ncn1` [Example 333, (R)—N-(6-(1-Methyl-1H-pyrazol-5-yl)pyrimidin-4-yl)-4H-1′-azaspiro[oxazole-5,3′-bicyclo[2.2.2]octan]-2-amine] belongs less than 100 nM; to `c1cnc(-c2cc(NC3=NC[C@@]4(CN5CCC4CC5)O3)ncn2)cn1` [Example 334, (R)—N-(6-(Pyrazin-2-yl)pyrimidin-4-yl)-4H-1′-azaspiro[oxazole-5,3′-bicyclo[2.2.2]octan]-2-amine], less than 100 nM. In turn, `Cc1cc2cnc(NC3=NC[C@@]4(CN5CCC4CC5)O3)cc2cc1C` [Example 335, (2R)—N-(6,7-Dimethyl-3-isoquinolinyl)-4′H-spiro[4-azabicyclo[2.2.2]octane-2,5′-[1,3]oxazol]-2′-amine] showed a 50% effective concentration (EC50) of 100 to 1000 nM. On the same count and under the same terms, next, `Cc1ccc2nc(NC3=NC[C@@]4(CN5CCC4CC5)O3)oc2c1` [Example 336, (2R)—N-(6-Methyl-1,3-benzoxazol-2-yl)-4′H-spiro[4-azabicyclo[2.2.2]octane-2,5′-[1,3]oxazol]-2′-amine]: less than 100 nM. In turn, `COc1ccc2nc(NC3=NC[C@@]4(CN5CCC4CC5)O3)oc2c1` [Example 337, (2R)—N-(6-Methoxy-1,3-benzoxazol-2-yl)-4′H-spiro[4-azabicyclo[2.2.2]octane-2,5′-[1,3]oxazol]-2′-amine] registered a concentration giving a half-maximal response (EC50) of 100 to 1000 nM. Molecule `Clc1cccc2cnc(NC3=NC[C@@]4(CN5CCC4CC5)O3)cc12` [Example 338A, (R)—N-(5-chloroisoquinolin-3-yl)-4H-1′-azaspiro[oxazole-5,3′-bicyclo[2.2.2]octan]-2-amine] returned an EC50 of less than 100 nM.

On to `Clc1ccc2cc(NC3=NC[C@@]4(CN5CCC4CC5)O3)ncc2c1` [Example 338B, (R)—N-(7-chloroisoquinolin-3-yl)-4H-1′-azaspiro[oxazole-5,3′-bicyclo[2.2.2]octan]-2-amine], for which the concentration for a half-maximal effect (EC50) is less than 100 nM. `Clc1cnc2nc(NC3=NC[C@@]4(CN5CCC4CC5)O3)sc2c1` [Example 339, (R)—N-(6-Chlorothiazolo[4,5-b]pyridin-2-yl)-4H-1′-azaspiro[oxazole-5,3′-bicyclo[2.2.2]octan]-2-amine] gave a half-maximal effective concentration (EC50) of less than 100 nM. As to `Fc1ccc2nc(NC3=NC[C@@]4(CN5CCC4CC5)O3)sc2n1` [Example 340, (R)—N-(5-Fluorothiazolo[5,4-b]pyridin-2-yl)-4H-1′-azaspiro[oxazole-5,3′-bicyclo[2.2.2]octan]-2-amine], the EC50 was less than 100 nM. Consider `Cc1cnc2nc(NC3=NC[C@@]4(CN5CCC4CC5)O3)sc2n1` [Example 341, (R)—N-(6-methylthiazolo[5,4-b]pyrazin-2-yl)-4H-1′-azaspiro[oxazole-5,3′-bicyclo[2.2.2]octan]-2-amine], for which the EC50 was less than 100 nM.

Molecule `COc1cc2cnc(NC3=NC[C@@]4(CN5CCC4CC5)O3)cc2cc1OC` [Example 342, (R)—N-(6,7-dimethoxyisoquinolin-3-yl)-4H-1′-azaspiro[oxazole-5,3′-bicyclo[2.2.2]octan]-2-amine] gave an EC50 of 1000 to 100000 nM. `c1nc(NC2=NC[C@@]3(CN4CCC3CC4)O2)cc2c1CCCC2` [Example 343, (R)—N-(5,6,7,8-Tetrahydroisoquinolin-3-yl)-4H-1′-azaspiro[oxazole-5,3′-bicyclo[2.2.2]octan]-2-amine]: the concentration for a half-maximal effect (EC50) is less than 100 nM. `COc1cc2cnc(NC3=NC[C@@]4(CN5CCC4CC5)O3)cc2cc1Cl` [Example 344, (R)—N-(6-Chloro-7-methoxyisoquinolin-3-yl)-4H-1′-azaspiro[oxazole-5,3′-bicyclo[2.2.2]octan]-2-amine] gave an EC50 of less than 100 nM. Still for that read-out and setting: next, `Fc1cccc2cnc(NC3=NC[C@@]4(CN5CCC4CC5)O3)cc12` [Example 345, (R)—N-(5-Fluoroisoquinolin-3-yl)-4H-1′-azaspiro[oxazole-5,3′-bicyclo[2.2.2]octan]-2-amine]: less than 100 nM; `Fc1ccc(Br)c2cnc(NC3=NC[C@@]4(CN5CCC4CC5)O3)cc12` [Example 346, (R)—N-(8-Bromo-5-fluoroisoquinolin-3-yl)-4H-1′-azaspiro[oxazole-5,3′-bicyclo[2.2.2]octan]-2-amine]: 100 to 1000 nM; `c1cn(-c2cc(NC3=NC[C@@]4(CN5CCC4CC5)O3)ncn2)cn1` [Example 347, (R)—N-(6-(1H-imidazol-1-yl)pyrimidin-4-yl)-4H-1′-azaspiro[oxazole-5,3′-bicyclo[2.2.2]octan]-2-amine]: less than 100 nM. On the same count and under the same terms, to `Cc1cn(-c2cc(NC3=NC[C@@]4(CN5CCC4CC5)O3)ncn2)cn1` [Example 348, (R)—N-(6-(4-Methyl-1H-imidazol-1-yl)pyrimidin-4-yl)-4H-1′-azaspiro[oxazole-5,3′-bicyclo[2.2.2]octan]-2-amine] belongs less than 100 nM. Molecule `Clc1cn(-c2cc(NC3=NC[C@@]4(CN5CCC4CC5)O3)ncn2)cn1` [Example 349, (R)—N-(6-(4-Chloro-1H-imidazol-1-yl)pyrimidin-4-yl)-4H-1′-azaspiro[oxazole-5,3′-bicyclo[2.2.2]octan]-2-amine] registered a concentration giving a half-maximal response (EC50) of less than 100 nM.

For the molecule `c1nc(NC2=NC[C@@]3(CN4CCC3CC4)O2)cc(-n2cncn2)n1` [Example 351, (R)—N-(6-(1H-1,2,4-triazol-1-yl)pyrimidin-4-yl)-4H-1′-azaspiro[oxazole-5,3′-bicyclo[2.2.2]octan]-2-amine], the EC50 is less than 100 nM.
